Data on 16 compounds can be found in patent US20060189591A1, “Five-membered heterocyclic derivative” (DAIICHI PHARMACEUTICAL CO., LTD., priority 2003, published 2006).

Counter-ions that a name gives are not always drawn. Like-named read-outs stand apart in the source and are kept apart here.

The subject of experiment [1] is collagen-induced platelet aggregation. The settings on record: cited from earlier work.
The test system is the same in experiment [2]. Nature of the experiment: Inhibitory activity for platelet aggregation (collagen-induced, human platelet rich plasma). Type of experiment: cell-based. The settings on record: human PRP, read-out: Inhibition of collagen-induced platelet aggregation, IC50. The protocol: Inhibitory Activity for Platelet Aggregation
Human blood was collected in the presence of 3.13% sodium citrate as an anticoagulant in a volume 1/10 the blood volume. The collected blood was centrifuged at 180×g for 10 minutes so as to separate the upper layer; i.e., platelet rich plasma (PRP) from the blood. The remaining lower layer was further centrifuged at 1,600×g for 10 minutes, and platelet poor plasma ([…]); i.e., the thus-obtained upper layer, was collected. A solution (1 μL) of the compound of the Examples was added to PRP (200 μL), and the mixture was allowed to stand at 37° C. for 2 minutes. Subsequently, collagen (2 μL) was added to the resultant mixture so as to induce platelet aggregation. Percentage of platelet aggregation was measured using PAM-12C (SSR Engineering). Optical transmittance of PPP was employed as the value reflecting the state in which 100% aggregation occurred. Percent of platelet aggregation values of PRP were determined at a series of concentrations of each Example compound and IC50 of each compound was calculated.

A further experiment addresses T1, Cyclooxygenase-1 (COX-1) (Ovis aries, UniProt P05979).
T1 construct: purchased Cayman Chemical Company 560101
T1 sequence (P05979 25-600): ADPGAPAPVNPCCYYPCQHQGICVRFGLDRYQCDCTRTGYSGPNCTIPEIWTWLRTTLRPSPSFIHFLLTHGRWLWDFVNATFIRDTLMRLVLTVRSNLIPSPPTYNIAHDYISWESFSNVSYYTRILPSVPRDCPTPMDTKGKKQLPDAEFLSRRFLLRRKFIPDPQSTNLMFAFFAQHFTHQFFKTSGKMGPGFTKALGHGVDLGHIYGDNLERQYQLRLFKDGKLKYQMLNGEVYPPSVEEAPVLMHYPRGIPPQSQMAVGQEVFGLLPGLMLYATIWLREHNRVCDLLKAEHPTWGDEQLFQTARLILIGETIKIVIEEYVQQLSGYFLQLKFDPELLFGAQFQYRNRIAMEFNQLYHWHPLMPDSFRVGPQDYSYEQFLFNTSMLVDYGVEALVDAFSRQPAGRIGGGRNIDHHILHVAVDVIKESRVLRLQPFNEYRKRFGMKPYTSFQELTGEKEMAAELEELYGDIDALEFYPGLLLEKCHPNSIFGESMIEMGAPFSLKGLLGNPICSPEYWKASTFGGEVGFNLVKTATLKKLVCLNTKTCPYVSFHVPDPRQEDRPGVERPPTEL
Put plainly: COX Inhibitor Screening Assay Kit, COX-1. Type of experiment: biochemical. To be noted: 50 μM compound; read-out: Inhibitory effect against COX-1 at 50 μM (% inhibition). The protocol: (§1) Inhibitory Effects on Cyclooxygenase-1 (COX-1) and Cyclooxygenase-2 (COX-2)
(§2) Inhibitory activity against COX-1 and COX-2 of the compounds produced in the Examples was measured by use of a COX Inhibitor Screening Assay Kit (product of Cayman Chemical Company, Catalog Nos. 560101 and 560121).
(§3) Before starting the measurement, reaction buffer, heme, arachidonic acid, SnCl2, EIA buffer, washing buffer, prostaglandin (PG) screening EIA standard, PG screening acetylcholine esterase (AchE), tracer (chromogenic enzyme […] conjugate), and PG screening EIA antiserum were prepared ready for use.
(§4) (1) Production of PGF2α in the presence of COX-1 or COX-2
(§5) A reaction mixture containing the compound of the Examples (50 μM) and COX-1 or COX-2 was allowed to stand at 37° C. for 10 minutes. Arachidonic acid ([…]) was added thereto, and the resultant mixture was further allowed to stand at 37° C. for 2 minutes. 1N-Hydrochloric acid (50 μL) was added to the reaction mixture, to thereby stop the reaction. SnCl2 solution (100 μL) was added thereto, and the resultant mixture was allowed to stand at room temperature for 5 minutes.
(§6) (2) Quantitative Determination of PGF2α using ELISA
(§7) Antiserum (rabbit anti-PGF2α antibody, 50 μL) was added to the wells of 96 well plate that had been coated with mouse anti-rabbit IgG. A solution of PGF2α-containing mixture obtained above (2000-fold diluted, 50 μL) and AchE tracer (50 μL) were added to the well in this order, and the mixture was allowed to stand at room temperature for 18 hours. The wells were washed 5 times with the washing buffer to remove an excessive AchE tracer, and Ellman reagent (200 μL) was added. After leaving the plate in a dark room for 60 minutes, absorbance was measured at 405 nm.
(§8) (3) Calculation of Inhibitory Activity of the Compound of the Examples
(§9) A calibration curve was obtained by use of the PG screening EIA standard, and the production amount of PGF2α was determined from the absorbance above. Percent inhibition against COX-1 or COX-2 at 50 μM of the compound of the Examples was calculated.

The target in a further experiment is T2, Cyclooxygenase-2 (COX-2) (Homo sapiens, UniProt P35354).
T2 construct: purchased Cayman Chemical Company 560121
T2 sequence (P35354 18-604): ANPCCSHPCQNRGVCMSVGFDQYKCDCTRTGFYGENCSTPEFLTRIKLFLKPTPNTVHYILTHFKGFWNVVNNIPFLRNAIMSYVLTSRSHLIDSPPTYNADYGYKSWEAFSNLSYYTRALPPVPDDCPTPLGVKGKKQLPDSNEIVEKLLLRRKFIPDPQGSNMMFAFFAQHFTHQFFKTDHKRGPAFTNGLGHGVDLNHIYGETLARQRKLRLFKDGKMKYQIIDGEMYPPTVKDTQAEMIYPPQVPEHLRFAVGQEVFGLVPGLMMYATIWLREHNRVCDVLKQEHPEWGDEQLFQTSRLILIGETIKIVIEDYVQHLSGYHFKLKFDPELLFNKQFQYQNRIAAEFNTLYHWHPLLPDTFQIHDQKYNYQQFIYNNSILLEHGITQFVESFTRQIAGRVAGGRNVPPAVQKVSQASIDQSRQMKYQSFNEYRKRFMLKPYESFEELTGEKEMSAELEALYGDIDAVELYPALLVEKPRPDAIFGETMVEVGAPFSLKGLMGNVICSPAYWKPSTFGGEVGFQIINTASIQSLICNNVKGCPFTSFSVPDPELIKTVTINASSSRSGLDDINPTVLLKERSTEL
Put plainly: COX Inhibitor Screening Assay Kit, COX-2. The settings on record: 50 μM compound; read-out: Inhibitory effect against COX-2 at 50 μM (% inhibition). Type of experiment: biochemical. Here is the method: as §1, §2, §3, §4, §5, §6, §7, §8, §9

The next experiment deals with COX. The settings on record: background art; cited from earlier work.

In general, IC50 refers to the concentration needed to halve the response being measured. Take `CS(=O)(=O)c1ccc(-c2cc(C#N)nn2-c2ccc(F)cc2)cc1` [Compound (A)]: the IC50 in experiment [1] (prior-art compound, background art, read-out: IC50 value against collagen-induced platelet aggregation) was 5.3 µM.
Usually inhibition stands for the change of the read-out against control, counted positive when it falls. Consider `COc1ccc(-c2nc(C(=O)N3CCN(C)CC3)cn2-c2ccc(F)cc2)cn1` [Example 6, 1-[1-(4-Fluorophenyl)-2-(6-methoxy-3-pyridyl)-1H-imidazole-4-carbonyl]-4-methylpiperazine], for which the IC50 in experiment [2] came out at 0.33 µM. The inhibition at 50 µM at Cyclooxygenase-1 (COX-1) stood at 28.4%; at Cyclooxygenase-2 (COX-2), 23.4%.
The corresponding values for `CN1CCN(C(=O)c2nc(-c3ccccc3)c(-c3ccccc3)o2)CC1` [Example 25, 1-(4,5-diphenyloxazole-2-carbonyl)-4-methylpiperazine] are 0.71 µM, 3.1% and -8.7%.
The corresponding values for `Cc1ccc(-n2cc(C(=O)N3CCN(C)C(=O)C3)nc2-c2ccc(C)nc2)cc1` [Example 32, 1-[1-(4-Methylphenyl)-2-(6-methyl-3-pyridyl)-1H-imidazole-4-carbonyl]-4-methyl-3-oxopiperazine] are 0.41 µM, 5.6% and -2.2%.
In the case of `COc1ccc(-n2nc(C(=O)N3CCN(C)CC3)nc2-c2ccc(C)cc2)cn1` [Example 37, 1-[1-(6-Methoxy-3-pyridyl)-5-(4-methylphenyl)-1H-1,2,4-triazole-3-carbonyl]-4-methylpiperazine hydrochloride], in experiment [2], the IC50 stood at 0.27 µM. Moreover, the figures for the inhibition at 50 µM at Cyclooxygenase-1 (COX-1) and on Cyclooxygenase-2 (COX-2) were -3.2% and -0.8%, respectively.
With `COc1ccc(-c2nc(C(=O)N3CCN(C)CC3)nn2-c2ccc(C)cc2)cn1` [Example 38, 1-[5-(6-Methoxy-3-pyridyl)-1-(4-methylphenyl)-1H-1,2,4-triazole-3-carbonyl]-4-methylpiperazine hydrochloride], the IC50 in experiment [2] was determined as 0.32 µM. Besides, the inhibition at 50 µM on Cyclooxygenase-1 (COX-1) turned out to be 3.5%; at Cyclooxygenase-2 (COX-2) it was 10.7%.
The corresponding values for `COc1ccc(-c2nc(C(=O)N3CCC(F)(F)CC3)cn2-c2ccccn2)cn1` [Example 63, 1-[2-(6-Methoxy-3-pyridyl)-1-(2-pyridyl)-1H-imidazole-4-carbonyl]-4,4-difluoropiperidine] are 0.02 µM, 3.4% and 7.5%.
For `COc1ccc(-c2nc(C(=O)N3CCC(F)CC3)cn2-c2ccccn2)cn1` [Example 64, 1-[2-(6-Methoxy-3-pyridyl)-1-(2-pyridyl)-1H-imidazole-4-carbonyl]-4-fluoropiperidine], the IC50 in experiment [2] came out at 0.06 µM. Also, the figures for the inhibition at 50 µM on Cyclooxygenase-1 (COX-1) and at Cyclooxygenase-2 (COX-2) were -1.4% and 4.5%, respectively.
Take `COc1ccc(-c2nc(C(=O)N3CCC(OC)CC3)cn2-c2ccccn2)cn1` [Example 65, 1-[2-(6-Methoxy-3-pyridyl)-1-(2-pyridyl)-1H-imidazole-4-carbonyl]-4-methoxypiperidine]: the IC50 in experiment [2] was 0.12 µM.
Regarding `COc1ccc(-n2nc(C(=O)N3CCN(C)CC3)nc2-c2ccccn2)cn1` [Example 66, 1-[1-(6-Methoxy-3-pyridyl)-5-(2-pyridyl)-1H-1,2,4-triazole-3-carbonyl]-4-methylpiperazine], the IC50 in experiment [2] was 0.7 µM.
Consider `COc1ccc(-n2nc(C(=O)N3CCC(F)(F)CC3)nc2-c2ccc(C#N)cn2)cn1` [Example 67, 1-[5-(5-Cyano-2-pyridyl)-1-(6-methoxy-3-pyridyl)-1H-1,2,4-triazole-3-carbonyl]-4,4-difluoropiperidine], for which the IC50 in experiment [2] is 0.22 µM.
`COc1ccc(-n2nc(C(=O)N3CCC(F)(F)CC3)nc2-c2ccc(F)cn2)cn1` [Example 71, 1-[5-(5-Fluoro-2-pyridyl)-1-(6-methoxy-3-pyridyl)-1H-1,2,4-triazole-3-carbonyl]-4,4-difluoropiperidine]: in experiment [2], the IC50 turned out to be 0.19 µM. In addition, at Cyclooxygenase-1 (COX-1), the inhibition at 50 µM amounted to 35.2%.
Take `COc1ccc(-c2nc(C(=O)N3CCC[C@@H](F)C3)cn2-c2ccccn2)cn1` [Example 72, (3R)-1-[2-(6-Methoxy-3-pyridyl)-1-(2-pyridyl)-1H-imidazole-4-carbonyl]-3-fluoropiperidine]: the IC50 in experiment [2] turned out to be 0.11 µM. Moreover, the inhibition at 50 µM at Cyclooxygenase-1 (COX-1) was 39%.
Regarding `COc1ccc(-n2nc(C(=O)N3CCC(F)(F)CC3)nc2-c2ccc(C)cn2)cn1` [Example 74, 1-[1-(6-Methoxy-3-pyridyl)-5-(5-methyl-2-pyridyl)-1H-1,2,4-triazole-3-carbonyl]-4,4-difluoropiperidine], the IC50 in experiment [2] was 0.021 µM. For the same compound, on Cyclooxygenase-1 (COX-1), the inhibition at 50 µM turned out to be 46.9%.
`COc1ccc(-c2cc(C(F)F)nn2-c2ccc(S(N)(=O)=O)cc2)cc1F` [compound (B)]: in experiment [1] (compared with inhibitory activity against COX-2), the “platelet aggregation inhibitory activity” value is given as “not so strong compared with its inhibitory activity against COX-2”.
Turning to `COc1ccc(-c2nc(C(=O)N3CCN(C)CC3)sc2-c2ccc(OC)cc2)cc1` [thiazole derivative (C)], in the experiment on COX, the COX inhibiting effect result is given as “inhibits COX”.
